Where two headings read alike, the source gives them in different places. Positions of bridges follow the written chain, without caps; N, C: chain ends. Non-standard residues stand in square brackets, D forms with d. Residues, ends and D or L forms follow the SMILES beside them. hCit = NC(=O)NCCCC[C@H](N)C(=O)O; Pip = O=C(O)[C@@H]1CCCCN1

For assay [1], the target named is T1, human MC4R (Homo sapiens, UniProt P32245).
T1 construct: expressed in transfected cells
The assay can be described thus: 125NDP-α-MSH competitive binding to membranes of BHK cells expressing human MC4 receptor (filtration assay). In short, it runs like this:
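Displacement of ^125NDP-α-MSH (apx. […] final) was measured by filtration after 2 h at 25 °C, using diluted membranes of stably transfected BHK cells in pH 7.0 HEPES buffer. Compounds spanned 1 μM to 0.001 nM; binding curves were analysed by non-linear regression.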

Assay [2] deals with T1, human MC4R. The assay can be described thus: Functional cAMP assay (CisBio HTRF) in BHK cells expressing human MC4R. Conditions: for MC1R/MC4R cAMP EC50 ratio: MC1R cAMP EC50 divided by MC4R cAMP EC50. The format is cell-based. The procedure, abridged: (§1)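 Stably transfected BHK cells expressing human MC1R or MC4R; cAMP quantified by HTRF (cAMP-d2/cryptate) after 30 min compound stimulation at 25 °C in DMEM-based buffer with 1 mM IBMX. Compounds were prepared as 10-fold serial dilutions starting at 2 μM (working solution, 2× final). Readout after 1 h at 25 °C; non-linear regression.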
On the technique in general: cAMP levels reflect the balance of adenylyl cyclase and phosphodiesterase activity.

In a further assay the target is T2, human MC1R (Homo sapiens, UniProt Q01726).
T2 construct: expressed in transfected cells
The assay can be described thus: Functional cAMP assay (CisBio HTRF) in BHK cells expressing human MC1R. It counts as cell-based. In short, it runs like this:
as §1

[3] abbreviates: human MC4R, BHK cell membranes, 125NDP-α-MSH radioligand, read-out: MC4R binding Ki.
The mark [4] stands for this setting: BHK cells expressing human MC1R, '>' = highest dose used with no response, read-out: MC1R cAMP EC50.

T1 sequence (P32245 whole entry): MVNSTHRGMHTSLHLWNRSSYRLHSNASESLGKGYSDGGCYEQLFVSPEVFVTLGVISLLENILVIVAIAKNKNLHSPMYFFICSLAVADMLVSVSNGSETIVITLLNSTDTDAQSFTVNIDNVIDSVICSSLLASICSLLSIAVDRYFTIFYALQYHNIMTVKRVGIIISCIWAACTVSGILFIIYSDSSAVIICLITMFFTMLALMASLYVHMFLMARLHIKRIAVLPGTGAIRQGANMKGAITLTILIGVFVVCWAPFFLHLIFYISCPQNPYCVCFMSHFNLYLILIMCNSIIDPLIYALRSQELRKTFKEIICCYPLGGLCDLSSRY
T2 sequence (Q01726 whole entry): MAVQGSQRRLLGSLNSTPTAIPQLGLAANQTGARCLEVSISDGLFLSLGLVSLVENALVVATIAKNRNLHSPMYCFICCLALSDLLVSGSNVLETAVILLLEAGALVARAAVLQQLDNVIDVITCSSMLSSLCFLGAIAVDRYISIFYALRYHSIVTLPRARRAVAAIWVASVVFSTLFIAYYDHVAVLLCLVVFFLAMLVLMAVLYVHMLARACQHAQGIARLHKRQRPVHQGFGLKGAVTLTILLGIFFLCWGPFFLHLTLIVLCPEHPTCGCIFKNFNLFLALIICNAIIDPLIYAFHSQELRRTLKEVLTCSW

The Ki is the dissociation constant of the complex between target and ligand, obtained from inhibition or displacement. The term EC50 denotes the concentration needed to bring the measured effect to its halfway point. Regarding `C[C@H]1NC(=O)[C@@H]2CSSC[C@H](NC(=O)[C@H](Cc3c[nH]c4ccccc34)NC(=O)[C@H](CCCNC(=N)N)NC(=O)[C@@H](Cc3ccccc3)NC(=O)[C@H](Cc3c[nH]cn3)NC1=O)C(=O)N[C@H](C)C(=O)N[C@@H](Cc1c[nH]cn1)C(=O)N[C@H](Cc1ccccc1)C(=O)N[C@@H](CCCNC(=N)N)C(=O)N[C@@H](Cc1c[nH]c3ccccc13)C(=O)N2` [Chem. 10, c[c[Cys-D-Ala-His-D-Phe-Arg-Trp- Cys]-D-Ala-His-D-Phe-Arg-Trp]], on human MC4R [1], affinity was put at a Ki of 0.13 nM. For the same compound, at human MC4R [2], the EC50 turned out to be 0.05 nM and the “MC1R/MC4R cAMP EC50 ratio” value is recorded as 98. At human MC1R, this compound returned an EC50 of 4.88 nM.
For `C[C@@H]1NC(=O)[C@@H]2CSSC[C@H](NC(=O)[C@H](CCCNC(=N)N)NC(=O)[C@H](CCCCN)NC(=O)[C@H](CCCCN)NC(=O)[C@H](CCCCN)NC1=O)C(=O)N1CCC[C@H]1C(=O)N[C@@H](Cc1c[nH]cn1)C(=O)N[C@H](Cc1ccccc1)C(=O)N[C@@H](CCCCNC(N)=O)C(=O)N[C@@H](Cc1c[nH]c3ccccc13)C(=O)N2` [Chem. 99, c[c[Cys-Pro-His-D-Phe-Cit-Trp-Cys]- Ala-Lys-Lys-Lys-Arg]] (cyclo(AKKKRCPH[dF][hCit]WC); disulfide 6-12), the Ki at human MC4R [1] (setting [3]) turned out to be 0.1 nM. The EC50 on human MC4R [2] (BHK cells expressing human MC4R, '>' = highest dose used with no response, read-out: MC4R cAMP EC50) turned out to be 0.39 nM; at human MC1R (setting [4]), 5.29 nM. In addition, the “MC1R/MC4R cAMP EC50 ratio” value on human MC4R [2] was 14.
In turn, `C[C@@H]1NC(=O)[C@@H]2CSSC[C@H](NC(=O)[C@H](Cc3c[nH]c4ccccc34)NC(=O)[C@H](CCCNC(=N)N)NC(=O)[C@@H](Cc3ccccc3)NC(=O)[C@H](Cc3c[nH]cn3)NC1=O)C(=O)N[C@@H](CCCNC(=N)N)C(=O)N[C@@H](Cc1ccccc1)C(=O)N[C@@H](Cc1ccccc1)C(=O)N[C@@H](CC(N)=O)C(=O)N[C@@H](C)C(=O)N[C@@H](Cc1ccccc1)C(=O)N2` [Chem. 13, c[c[Cys-Ala-His-D-Phe-Arg-Trp-Cys]- Arg-Phe-Phe-Asn-Ala-Phe]] (cyclo(AFCAH[dF]RWCRFFN); disulfide 3-9) came in with a Ki at human MC4R [1] of 0.26 nM. Moreover, the EC50 on human MC4R [2] is 0.1 nM; on human MC1R, 6.36 nM. Further, at human MC4R [2], the “MC1R/MC4R cAMP EC50 ratio” value was found to be 64.
At human MC4R [1], `C[C@@H]1NC(=O)[C@@H]2CSSC[C@H](NC(=O)[C@H](Cc3c[nH]c4ccccc34)NC(=O)[C@H](CCCNC(=N)N)NC(=O)[C@@H](Cc3ccccc3)NC(=O)[C@H](Cc3c[nH]cn3)NC1=O)C(=O)N[C@@H](CCCNC(=N)N)C(=O)N[C@@H](Cc1ccccc1)C(=O)N[C@@H](Cc1ccccc1)C(=O)N[C@@H](CC(N)=O)C(=O)N[C@@H](C)C(=O)N2` [Chem. 12, c[c[Cys-Ala-His-D-Phe-Arg-Trp-Cys]- Arg-Phe-Phe-Asn-Ala]] (cyclo(ACAH[dF]RWCRFFN); disulfide 2-8) showed a Ki of 0.28 nM. Moreover, on human MC4R [2], a half-maximal effect (EC50) was put at 0.07 nM and the “MC1R/MC4R cAMP EC50 ratio” value is 57. In addition, on human MC1R, the response was half-maximal at 3.97 nM (EC50).
`C[C@@H]1NC(=O)[C@@H]2CSSC[C@H](NC(=O)[C@H](Cc3c[nH]c4ccccc34)NC(=O)[C@H](CCCCN)NC(=O)[C@H](CCCCN)NC(=O)[C@H](CCCCN)NC1=O)C(=O)N1CCCC[C@H]1C(=O)N[C@@H](Cc1c[nH]cn1)C(=O)N[C@H](Cc1ccccc1)C(=O)N[C@@H](Cc1c[nH]cn1)C(=O)N[C@@H](Cc1c[nH]c3ccccc13)C(=O)N2` [Chem. 83, c[c[Cys-PIP-His-D-Phe-His-Trp-Cys]- Ala-Lys-Lys-Lys-Trp]] (cyclo(AKKKWC[Pip]H[dF]HWC); disulfide 6-12): the Ki at human MC4R [1] (setting [3]) was found to be 0.17 nM. In addition, on human MC4R [2], the “MC1R/MC4R cAMP EC50 ratio” value was over 5. In addition, the EC50 at human MC1R (setting [4]) is over 10 nM.

(Values after patent US20200223889A1, “Bicyclic Compounds Capable of Binding to Melanocortin 4 Receptor” (Novo Nordisk A/S, priority 2017, published 2020).)
